{"source": "patent US8338624B2", "about": "“Isoflavone derivatives and uses thereof” (Yeda Research and Development Co., Ltd., priority 2007, dated 2012)", "key": {"[1]": {"test_system": "Human umbilical vascular smooth muscle cells (VSMC)", "experiment": "DNA synthesis by [3H]-thymidine incorporation, normal VSMC", "assay_type": "cell-based", "details": "compound at 3 μM", "experimental": "Human umbilical vascular smooth muscle cells (VSMC) sensitive to estrogen, were grown in culture as described above, and used only at passages 1-3, when expression of smooth muscle actin was clearly demonstrable (Somjen et al. 2000). The ratio of the expression of mRNA for ERα to ERβ was 2.7:1.\n(§1) [^3H]-Thymidine incorporation into DNA was used for the assessment of the various effects (proliferative or inhibitory) of various isoflavones, isoflavone derivatives and known cytotoxic drugs in the above-mentioned cells. Cells were grown until subconfluence using conditions described in Somjen et al. (Somjen et al., 1998) and then treated with various agents for 24 or 48 h as indicated. At the end of incubation, [^3H]-thymidine was added for two hours. Cells were then treated with 10% ice-cold trichloroacetic (TCA) for 5 min and washed twice with 5% TCA and then with cold ethanol. The cellular layer was dissolved in 0.3 ml of 0.3 M NaOH, aliquots were taken for counting radioactivity, and [^3H]-thymidine incorporation into DNA was calculated."}, "320DM colon xenografts": {"test_system": "320DM colon xenografts", "experiment": "320DM colon xenografts in nude mice", "assay_type": "in vivo", "details": "320DM xenografts, 8 ip daily 230 μg, 9 injections within 11 days", "source_text": "Female CD1 nude mice (8-week old, ˜30 g) were housed and handled with free access to food and water in the animal facility according to the guidelines (1996) of the Institutional Animal Care and Use Committee of the Weizmann Institute of Science, Rehovot, Israel.\nThirty female CD-1 nude mice were inoculated sc with 2×10^6 320DM human colon cancer cells. Two weeks later, 13 mice that developed palpable tumors were divided into two groups: control (5 mice) and treatment (8 mice). Each mouse of the treatment group received daily intra-peritoneal (ip) injections of compound 8 (230 μg in 70 μl of propylene glycol:PBS (20:80)) and the control mice received only propylene glycol:PBS. Each treated mouse received 9 injections within 11 days. The tumors were measured with calipers every other day during 12 days in two dimensions, length (a) and width (b), and tumor area was calculated using the formula: r^2×3.14, where r=a/2+b/2/2. The tumor area on Day 0 was taken as 100%."}, "[2]": {"test_system": "320DM human colon cancer cells", "experiment": "DNA synthesis by [3H]-thymidine incorporation, 320DM cells", "assay_type": "cell-based", "experimental": "(§2) Cells were cultured in MEM supplemented with 10% FCS and antibiotics. Cells were grown to subconfluence and then treated with various hormones or agents as described by Somjen et al. (Somjen et al., 1998). The cells were characterized in terms of expression of mRNAs for estrogen […] by real time PCR, and the results are summarized in Table 1. N87, 320DM and H295R cells expressed mRNAs for both ERs. The ratio of ERα to ERβ was 1:8.5, 1:30 and 1:1.8 in N87, 320DM and H295R cells, respectively. Ovarian A2780 and prostate C4-24 cells expressed mainly mRNA for ERβ, and the ratio of ERβ to ERα was 300:1 and 70:1, respectively. MLS ovarian cells expressed mRNA only for ERβ. The ratio of ERα to ERβ in T47D cells has been reported to be 9:1.\nas §1, with “(Somjen et al., 1998) and then treated with various agents for 24 or 48 h as indicated.” left out"}, "[3]": {"test_system": "T47D mammary cancer cells", "experiment": "DNA synthesis by [3H]-thymidine incorporation, T47D cells", "assay_type": "cell-based, human", "details": "Homo sapiens", "experimental": "as §2, §1"}, "[4]": {"test_system": "human prostate C4-2B cancer cells", "experiment": "DNA synthesis by [3H]-thymidine incorporation, C4-2B cells", "assay_type": "cell-based", "experimental": "as §2, §1"}, "[5]": {"test_system": "H295R adrenocarcinoma cells", "experiment": "DNA synthesis by [3H]-thymidine incorporation, H295R cells", "assay_type": "cell-based, human", "experimental": "as §2, §1"}, "[6]": {"test_system": "A2780 ovarian cancer cells", "experiment": "DNA synthesis by [3H]-thymidine incorporation, A2780 cells", "assay_type": "cell-based, human", "experimental": "as §2, §1"}}}
{"compound": "CC(C)(C)OC(=O)NCCCCCCNC(=O)CCCc1oc2cc(O)cc(O)c2c(=O)c1-c1ccc(O)cc1", "note": "[Compound 8, 2-[3-[N-[6-(tert-Butoxycarbonyl)-aminohexyl]]-caboxamidopropyl]-5,7,4′-trihydroxyisoflavone]", "values": [{"measurement": "DNA synthesis, ratio experimental/control (E/C)", "setting": "[1]", "value": "0.78 ± 0.1"}, {"measurement": "effect on growth of tumors", "setting": "320DM colon xenografts", "value": "slowed down the growth of the tumors"}, {"measurement": "effect on DNA synthesis / growth", "setting": "[2]; 30 to 3000 nM", "value": "significant growth inhibitory effect"}, {"measurement": "DNA synthesis, ratio experimental/control (E/C)", "setting": "[2]; compound at 3 μM", "value": "0.2 ± 0.09"}, {"measurement": "inhibition at 10 µM", "setting": "[3]", "value": "24 to 40", "unit": "%"}, {"measurement": "inhibition of DNA synthesis", "setting": "[4]; at 30 nM and 300 nM", "value": "10-15%"}, {"measurement": "DNA synthesis, ratio experimental/control (E/C)", "setting": "[4]; compound at 0.3 μM", "value": "0.75 ± 0.07"}, {"measurement": "inhibition at 3 µM", "setting": "[5]; Homo sapiens, NCI-H295R, at 3 μM, read-out: inhibition of DNA synthesis / growth", "value": "40 to 45", "unit": "%"}, {"measurement": "DNA synthesis, ratio experimental/control (E/C)", "setting": "[5]; compound at 3 μM", "value": "0.6 ± 0.14"}, {"measurement": "effect on DNA synthesis", "setting": "[6]; at 3 μM", "value": "had no effect"}, {"measurement": "DNA synthesis, ratio experimental/control (E/C)", "setting": "[6]; compound at 3 μM", "value": "1.12 ± 0.19"}]}
